Assays:
CCKA = molecular target: T1, CCKA (Cavia porcellus, UniProt Q63931); assay: CCKA binding assay in guinea-pig pancreas membranes; conditions: [125I]-CCK8(S) 200pM, containing 0.375 µM PD134,308, read-out: CCKA pKi (converted)
T1 construct: The pancreatata were removed from male guinea-pigs (200-300g; Dunkin Hartley); from tissue; host or cells: pancreas membranes of male Dunkin Hartley guinea-pigs
T1 sequence (Q63931 1-430): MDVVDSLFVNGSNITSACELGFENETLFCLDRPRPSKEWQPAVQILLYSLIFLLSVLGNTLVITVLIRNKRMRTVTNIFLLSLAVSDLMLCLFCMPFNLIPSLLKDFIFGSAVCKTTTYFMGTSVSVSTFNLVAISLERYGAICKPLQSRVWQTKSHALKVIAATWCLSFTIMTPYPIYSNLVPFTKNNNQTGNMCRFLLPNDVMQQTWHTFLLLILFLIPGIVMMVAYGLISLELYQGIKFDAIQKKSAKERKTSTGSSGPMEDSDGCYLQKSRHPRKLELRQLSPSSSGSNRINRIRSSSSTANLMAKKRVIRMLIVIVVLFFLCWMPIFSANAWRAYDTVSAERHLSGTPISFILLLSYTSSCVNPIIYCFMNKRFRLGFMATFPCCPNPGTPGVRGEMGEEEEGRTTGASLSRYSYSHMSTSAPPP
Description: The compounds of the examples were also tested in a CCKÅ binding assay as follows:
The pancreatata were removed from male guinea-pigs (200-300g; Dunkin Hartley) and placed in ice-cold HEPES buffer (pH 7.2 @ 21 ± 3° ). The pancreatata were homogenised in 40 ml ice-cold HEPES buffer using a polytron (Brinkmann, PT10, setting 10) 4 x 1 second.
The homogenate was centrifuged at 39,800g for 15 min at 4°. The supernatant was discarded and the pellet re-suspended using a Teflon-in-glass homogeniser in 20 volumes of fresh buffer and recentrifuged as above. The final pellet was re-suspended using a Teflon-in-glass homogeniser to a tissue concentration of 1 mg.ml^-1 (original wet weight), and filtered through 500 µm pore-size Nytex mesh.
The membranes (400µl; containing 0.375 µM PD134,308) are incubated for 150 minutes at 21 ± 3° in a final volume of 0.5ml with HEPES buffer containing [^125I]-CCK8(S) (50µl; 200pM) and competing compound. Total and non-specific binding of [^125I]-CCK8 (S) are defined using 50µl of buffer and 50µl of 100nM L-364,718 respectively. The assay is terminated by rapid filtration through pre-soaked Whatman GF/B filters using a Brandell Cell Harvester. The filters were washed (3 x 3ml) with ice-cold 50mM Tris HCl (pH 7.4 at 4° ) and bound radioactivity is determined by counting (1 min) in a gamma counter.

gastrin = molecular target: T2, gastrin (Rattus norvegicus, UniProt P30553); assay: gastrin antagonist activity in an immature rat stomach assay; conditions: isolated immature rat stomach, cumulative pentagastrin dose-response curves, acid secretion; read-out: Gastrin pKB (converted)
T2 construct: The stomach was excised and flushed with ca. 1 ml of unbuffered physiological saline solution; from tissue; host or cells: isolated whole stomach of immature rats (33-50 g, ca. 21 days old)
T2 sequence (P30553 1-452): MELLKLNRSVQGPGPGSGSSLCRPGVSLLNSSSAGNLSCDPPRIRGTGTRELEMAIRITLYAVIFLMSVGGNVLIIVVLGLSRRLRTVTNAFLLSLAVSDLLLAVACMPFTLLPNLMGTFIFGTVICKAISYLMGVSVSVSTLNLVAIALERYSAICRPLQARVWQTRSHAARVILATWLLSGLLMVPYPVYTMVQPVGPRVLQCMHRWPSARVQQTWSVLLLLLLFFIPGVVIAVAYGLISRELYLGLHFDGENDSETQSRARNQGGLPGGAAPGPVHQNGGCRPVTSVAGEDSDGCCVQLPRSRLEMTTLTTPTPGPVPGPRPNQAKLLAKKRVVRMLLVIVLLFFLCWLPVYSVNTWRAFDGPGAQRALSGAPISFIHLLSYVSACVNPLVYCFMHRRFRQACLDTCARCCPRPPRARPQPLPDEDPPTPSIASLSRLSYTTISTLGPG
Description: The compounds of the examples were also tested for gastrin antagonist activity in an immature rat stomach assay. The procedure was as follows: The oesophagus of immature rats (33-50 g, ca. 21 days old) was ligated at the level of the cardiac sphincter and the duodenal sphincter was cannulated. The stomach was excised and flushed with ca. 1 ml of unbuffered physiological saline solution. The fundus was punctured and cannulated. A further 4-5 ml of unbuffered solution was flushed through the stomach to ensure the preparation was not leaking. […] The stomach was continuously perfused at a rate of 1 ml min^-1 with unbuffered solution gassed with 100% O2 with the perfusate passing over an internally referenced pH-electrode fixed 12 cm above the stomach. After 120 min of stabilisation the drugs were added directly to the serosal solution in the organ bath and after a further 60 min cumulative pentagastrin dose-response curves were started.

CCKB receptor = molecular target: T3, CCKB receptor (Mus musculus, UniProt P56481); assay: radioligand binding assay at the CCKB receptor in mouse cortical membranes; conditions: [125I]-CCK8S 200pM, 150 min at 21 ± 3°C, read-out: CCKB pKi (converted)
T3 construct: The whole brains from male mice (CD1 22-25g; Charles River) were removed; from tissue; host or cells: cerebral cortex membranes of male CD1 mice
T3 sequence (P56481 1-453): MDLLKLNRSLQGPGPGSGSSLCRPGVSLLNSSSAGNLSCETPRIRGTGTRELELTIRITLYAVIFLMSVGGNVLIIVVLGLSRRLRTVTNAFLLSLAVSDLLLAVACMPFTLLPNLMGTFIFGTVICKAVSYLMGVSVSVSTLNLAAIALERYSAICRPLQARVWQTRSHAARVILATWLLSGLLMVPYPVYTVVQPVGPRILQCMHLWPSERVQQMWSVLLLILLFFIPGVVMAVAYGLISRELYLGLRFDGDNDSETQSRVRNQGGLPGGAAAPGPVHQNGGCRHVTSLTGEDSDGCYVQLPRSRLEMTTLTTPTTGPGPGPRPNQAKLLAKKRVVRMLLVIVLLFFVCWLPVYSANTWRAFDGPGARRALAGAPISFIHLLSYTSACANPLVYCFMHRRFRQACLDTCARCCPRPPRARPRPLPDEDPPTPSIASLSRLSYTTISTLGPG
Description: The compounds of the examples were tested for binding at the CCKB receptor in mouse cortical membranes by means of a radioligand binding assay. The procedure was as follows:
The whole brains from male mice (CD1 22-25g; Charles River) were removed and placed in ice-cold buffer (pH7.2 @ 21 ± 3°C) of the following composition (mM); 10 HEPES, 130 NaCl, 4.7 KCl, 5 MgCl2, 1 EDTA and containing 0.25g.l^-1 bacitracin. The cortex was dissected, weighed and homogenised in 40ml ice-cold buffer using a Teflon-in-glass homogeniser. The homogenate was centrifuged at 39,800g for 20 min at 4°C, the supernatant discarded and the pellet resuspended by homogenisation in fresh buffer. The homogenate was recentrifuged (39,800g; 20 min @ 4°C) and the final pellet was resuspended in HEPES buffer to give a tissue concentration of 2mg.ml^-1(original wet weight).
The assay was terminated by rapid filtration through pre-soaked Whatman GF/B filters using a Brandell Cell harvester. The filters were washed (3 x 3ml) with ice-cold 50mM Tris-HCl (pH7.4 @ 4°C) and bound radioactivity determined by counting (1 min.) in a gamma-counter.

| SMILES | Ki (CCKA) | Kb (gastrin) | Ki (CCKB receptor) |
| --- | --- | --- | --- |
| O=C(O)c1cc(NC(=O)[C@@H](Cc2ccccc2)NC(=O)C2C3c4ccccc4C(c4ccccc43)C2C(=O)NCC23CC4CC(CC(C4)C2)C3)cc(C(=O)O)c1 (single isomer, unassigned) [Example 3, cis-7-(1R-(3,5-dicarboxyphenylaminocarbonyl) -2-phenylethylaminocarbonyl)-8-(1-adamantanemethylaminocarbonyl) -2,3,5,6-dibenzobicyclo[2.2.2]octane] | 2510 nM | 126 nM | 10 nM |
| O=C(O)c1cc(NC(=O)[C@@H](Cc2ccccc2)NC(=O)C2C3c4ccccc4C(c4ccccc43)C2C(=O)NCC23CC4CC(CC(C4)C2)C3)cc(C(=O)O)c1 (single isomer, unassigned) [Example 4, cis-7-(1R-(3,5-dicarboxyphenylaminocarbonyl)-2-phenylethylaminocarbonyl)-8-(1-adamantananethylaminocarbonyl) -2,3,5,6-dibenzobicyclo[2.2.2]octane] | 1260 nM | 15.8 nM | 15.8 nM |
| O=C(O)c1cc(NC(=O)[C@H](Cc2cccs2)NC(=O)C2C3c4ccccc4C(c4ccccc43)C2C(=O)NCC23CC4CC(CC(C4)C2)C3)cc(C(=O)O)c1 (single isomer, unassigned) [Example 7, cis-7-(1S-(3,5-dicarboxyphenylaminocarbonyl) -2-(2-thiophenyl)ethylaminocarbonyl)-8-(1-adamantanemethylaminocarbonyl) -2,3,5,6-dibenzobicyclo[2.2.2]octane] | 501 nM | 251 nM | 50.1 nM |
| O=C(O)c1cc(NC(=O)[C@H](Cc2ccc(F)cc2)NC(=O)C2C3c4ccccc4C(c4ccccc43)C2C(=O)NCC23CC4CC(CC(C4)C2)C3)cc(C(=O)O)c1 (single isomer, unassigned) [Example 8, cis-7-(1S-(3,5-dicarboxyphenylaminocarbonyl) -2-(4-fluorophenyl)-ethylaminocarbonyl)-8-(1-adamantane-methylaminocarbonyl)-2,3,5,6-dibenzobicyclo[2.2.2]octane] | 1000 nM | 7.94 nM | 12.6 nM |
| O=C(O)c1cc(NC(=O)[C@H](Cc2ccc(F)cc2)NC(=O)C2C3c4ccccc4C(c4ccccc43)C2C(=O)NCC23CC4CC(CC(C4)C2)C3)cc(C(=O)O)c1 (single isomer, unassigned) [Example 9, cis-7-(1S-(3,5-dicarboxyphenylaminocarbonyl) -2-(4-fluorophenyl)ethylaminocarbonyl)-8-(1-adamantanemethylaminocarbonyl) -2,3,5,6-dibenzobicyclo[2.2.2]octane] | 398 nM | 20 nM | 50.1 nM |
| O=C(O)c1cc(NC(=O)[C@H](Cc2ccc(Cl)cc2)NC(=O)C2C3c4ccccc4C(c4ccccc43)C2C(=O)NCC23CC4CC(CC(C4)C2)C3)cc(C(=O)O)c1 (single isomer, unassigned) [Example 10, cis-7-(1S-(3,5-dicarboxyphenylaminocarbonyl)-2-(4-chlorophenyl)-ethylaminocarbonyl)-8-(1-adamantanemethylaminocarbonyl) -2,3,5,6-dibenzobicyclo[2.2.2]octane] | 794 nM | 5.01 nM | 10 nM |
| O=C(O)c1cc(NC(=O)[C@H](Cc2ccc(Cl)cc2)NC(=O)C2C3c4ccccc4C(c4ccccc43)C2C(=O)NCC23CC4CC(CC(C4)C2)C3)cc(C(=O)O)c1 (single isomer, unassigned) [Example 11, cis-7-(1S-(3,5-dicarboxyphenylaminocarbonyl)-2-(4-chlorophenyl)ethylaminocarbonyl)-8-(1-adamantanemethylaminocarbonyl) -2,3,5,6-dibenzobicyclo[2.2.2]octane] | 50.1 nM | 100 nM | 251 nM |
| COc1ccc(C[C@H](NC(=O)C2C3c4ccccc4C(c4ccccc43)C2C(=O)NCC23CC4CC(CC(C4)C2)C3)C(=O)Nc2cc(C(=O)O)cc(C(=O)O)c2)cc1 (single isomer, unassigned) [Example 12, cis-7-(1S-(3,5-dicarboxyphenylaminocarbonyl)-2-(4-methoxyphenyl) -ethylaminocarbonyl)-8-(1-adamantanemethylaminocarbonyl) -2,3,5,6-dibenzobicyclo[2.2.2]octane] | 1580 nM | 63.1 nM | 100 nM |
| COc1ccc(C[C@H](NC(=O)C2C3c4ccccc4C(c4ccccc43)C2C(=O)NCC23CC4CC(CC(C4)C2)C3)C(=O)Nc2cc(C(=O)O)cc(C(=O)O)c2)cc1 (single isomer, unassigned) [Example 13, cis-7-(1S-(3,5-dicarboxyphenylaminocarbonyl) -2-(4-methoxyphenyl)ethylaminocarbonyl)-8-(1-adamantanemethylaminocarbonyl) -2,3,5,6-dibenzobicyclo[2.2.2]octane] | 2000 nM | 316 nM | 501 nM |

Source: patent publication EP0719251B1, “BICYCLO (2.2.2) OCTANE DERIVATIVES CHOLECYSTOKININ AND/OR GASTRIN ANTAGONISTS” (JAMES BLACK FOUNDATION LIMITED, priority 1993, dated 1995)
